Results reported in patent publication US12502434B2, “Compound comprising EZH2 inhibitor and E3 ligase binder and pharmaceutical composition for preventing or treating EZH2-associated disease comprising same as active ingredient” (DAEGU-GYEONGBUK MEDICAL INNOVATION FOUNDATION, priority 2019, dated 2025).
Read-outs that look alike come from different tables or passages of the source.

Columns and labels:
[1] = biological target: T1, HiBiT-EZH2 in EZH2-HiBiT HEK293T cells (Homo sapiens, UniProt Q15910); experiment: EZH2 proteolytic activity using Nano-BiT assay system; type: cell-based; conditions: for EZH2 proteolytic ability compared to comparative compounds 1, 2 and 3 (in words): 1 μM; for Relative EZH2 degradation rate, 1 μM(%) Average: 72 hours, n = 3
T1 construct: endogenous in cells; host or cells: HEK293T (CRISPR/Cas9 HiBiT knock-in at the EZH2 locus)
T1 sequence (Q15910 whole entry): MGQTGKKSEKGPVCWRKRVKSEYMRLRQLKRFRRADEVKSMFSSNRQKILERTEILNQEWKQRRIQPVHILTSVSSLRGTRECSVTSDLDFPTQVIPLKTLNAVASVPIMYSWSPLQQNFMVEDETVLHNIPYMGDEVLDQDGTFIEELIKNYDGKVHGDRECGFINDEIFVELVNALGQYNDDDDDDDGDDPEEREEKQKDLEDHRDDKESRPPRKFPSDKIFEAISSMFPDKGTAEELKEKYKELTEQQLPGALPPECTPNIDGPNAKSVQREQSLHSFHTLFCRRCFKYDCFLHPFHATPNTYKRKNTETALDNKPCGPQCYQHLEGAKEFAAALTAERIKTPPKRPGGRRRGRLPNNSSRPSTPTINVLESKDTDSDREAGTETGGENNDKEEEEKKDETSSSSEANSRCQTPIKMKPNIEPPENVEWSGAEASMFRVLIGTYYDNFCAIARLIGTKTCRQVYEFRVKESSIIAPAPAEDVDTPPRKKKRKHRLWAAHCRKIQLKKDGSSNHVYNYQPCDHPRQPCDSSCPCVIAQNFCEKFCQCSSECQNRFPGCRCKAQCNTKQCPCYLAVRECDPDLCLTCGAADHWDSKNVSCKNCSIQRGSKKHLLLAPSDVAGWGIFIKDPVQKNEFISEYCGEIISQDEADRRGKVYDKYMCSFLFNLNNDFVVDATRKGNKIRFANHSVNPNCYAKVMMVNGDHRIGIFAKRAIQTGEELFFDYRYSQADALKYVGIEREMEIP
T1 sequence (O75530 whole entry partner): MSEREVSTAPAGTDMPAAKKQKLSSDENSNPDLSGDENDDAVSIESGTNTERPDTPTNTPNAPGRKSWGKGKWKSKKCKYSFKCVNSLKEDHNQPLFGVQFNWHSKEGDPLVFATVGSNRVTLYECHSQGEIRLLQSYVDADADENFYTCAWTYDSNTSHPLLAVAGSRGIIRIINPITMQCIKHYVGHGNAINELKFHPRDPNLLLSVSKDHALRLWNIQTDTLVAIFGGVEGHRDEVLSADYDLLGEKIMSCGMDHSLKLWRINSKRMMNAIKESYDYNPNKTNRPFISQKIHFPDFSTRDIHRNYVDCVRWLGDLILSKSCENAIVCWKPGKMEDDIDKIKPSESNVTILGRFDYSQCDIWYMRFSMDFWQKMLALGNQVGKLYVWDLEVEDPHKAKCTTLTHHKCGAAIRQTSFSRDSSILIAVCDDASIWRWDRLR
T1 sequence (Q15022 whole entry partner): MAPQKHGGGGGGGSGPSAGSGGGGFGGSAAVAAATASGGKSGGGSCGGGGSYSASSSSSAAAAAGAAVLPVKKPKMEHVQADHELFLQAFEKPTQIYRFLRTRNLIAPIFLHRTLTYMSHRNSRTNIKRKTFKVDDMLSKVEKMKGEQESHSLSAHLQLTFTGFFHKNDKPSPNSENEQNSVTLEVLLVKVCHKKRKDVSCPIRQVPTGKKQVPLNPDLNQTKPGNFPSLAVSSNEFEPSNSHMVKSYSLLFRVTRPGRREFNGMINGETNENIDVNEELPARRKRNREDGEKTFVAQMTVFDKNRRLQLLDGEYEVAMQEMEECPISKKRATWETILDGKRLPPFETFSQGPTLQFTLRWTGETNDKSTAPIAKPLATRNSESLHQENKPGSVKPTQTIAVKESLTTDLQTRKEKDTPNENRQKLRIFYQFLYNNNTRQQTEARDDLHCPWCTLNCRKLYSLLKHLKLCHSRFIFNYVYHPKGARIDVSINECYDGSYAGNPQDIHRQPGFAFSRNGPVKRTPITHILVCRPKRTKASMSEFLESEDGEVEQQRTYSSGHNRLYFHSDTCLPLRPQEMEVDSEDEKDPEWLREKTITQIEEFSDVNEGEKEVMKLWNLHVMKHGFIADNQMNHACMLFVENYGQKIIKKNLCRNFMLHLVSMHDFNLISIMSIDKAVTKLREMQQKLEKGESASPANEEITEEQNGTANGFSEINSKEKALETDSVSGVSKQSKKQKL
Experimental: In order to evaluate the EZH2 proteolytic activity of the compound according to the present invention, the following experiment was performed. Specifically, the CRISPR/Cas9 technique was used to construct a stable cell line of HiBiT-EZH2. […] After harvesting the cells, the cell solution was prepared at a concentration of 1 cell/100 ul, and 100 ul of the cell solution was dispensed into each well of a 96-well plate and seeded so that a single cell could proliferate in each well. After proliferating the cells for 2-3 weeks, some of the proliferated cells from one cell were recovered and gDNA was extracted. To confirm that the HiBiT sequence was correctly inserted into the EZH2 target, deep sequencing was performed to select the cells containing the HiBiT sequence, and after further verification through Sanger sequencing, the final EZH2-HiBiT HEK293T cells were obtained. 1×10^3 of the obtained cells were placed in a 96-well white plate, and after 18 hours of stabilization, each well was treated with the example compound at a final concentration of 1 μM. The control group was treated with the same concentration of DMSO which was used as the solvent of the example compound. After 72 hours of the treatment, an assay was performed using Nano-Glo HiBiT Lytic Detection System ([…], Promega). After removing the medium, 100 μL of lysis buffer, 1 μL of LgBiT protein and 1 μL of substrate buffer were added to each well. Then, the plate was reacted in a shaking incubator at 700 rpm for 2 minutes, and then the mixture of each well was pipetted to mix well. Thereafter, the plate was reacted at room temperature for 10 minutes while light was blocked, and luminescence was measured.

[2] = biological target: T2, EZH2 protein in LS174T cells (Homo sapiens, UniProt Q15910); experiment: Proteolytic effect in colorectal cancer cells (Western blotting); type: cell-based
T2 construct: endogenous in cells; host or cells: LS174T
T2 sequence (Q15910 whole entry): as the sequence (Q15910 whole entry) above
T2 sequence (O75530 whole entry partner): as the sequence (O75530 whole entry partner) above
T2 sequence (Q15022 whole entry partner): as the sequence (Q15022 whole entry partner) above
Experimental: After 72 hours of the treatment, the cells were collected and lysed using RIPA buffer (50 mM Tris, pH 7.5, 150 mM NaCl, 1% Triton X-100, 0.1% SDS, […], 0.5% deoxycholate, and protease inhibitor cocktail), followed by sonication (30 sec on/30 sec off, 5 cycles) to prepare a cell lysate.

[3] = EZH2 protein, LS174T cells, 1 μM, 72 hours
[4] = EZH2 protein, LS174T cells, 1 uM, 72 hours, Western blotting

Compound	EZH2 proteolytic ability compared to comparative compounds 1, 2 and 3 (in words) [1]	Relative EZH2 degradation rate, 1 μM(%) Average [1]	Grade (percent value of the protein degradation when treated with 1 μM) [2, 3]	%, degradation at 1 uM [2, 4]	EZH2 proteolytic effect by Western blotting (figure, in words) ([2]; FIGS. 1 to 5)	effect of degrading EZH2 protein when treated to colorectal cancer cells (in words) ([2]; LS174T cells)	%, degradation at 1 uM [2]	EZH2 proteolytic effect by Western blotting (figure, in words) [2]	Grade (percent value of the protein degradation when treated with 1 μM) [2]
CCN(c1cc(-c2ccc(CN3CCN(CC(=O)N4CCC5(CCN(CCNc6cccc7c6C(=O)N(C6CCC(=O)NC6=O)C7=O)CC5)CC4)CC3)cc2)cc(C(=O)NCc2c(C)cc(C)[nH]c2=O)c1C)C1CCOCC1 (centres unmarked) [Example 30, N-((4,6-dimethyl-2-oxo-1,2-dihydropyridine-3-yl)methyl)-4′-((4-(2-(9-(2-((2-(2,6-dioxopiperidine-3-yl)-1,3-dioxoisoindoline-4-yl)amino)ethyl)-3,9-diazaspiro[5.5]undecane-3-yl)-2-oxoethyl)piperazine-1-yl)methyl)-5-(ethyl(tetrahydro-2H-pyran-4-yl)amino)-4-methyl-[1,1′-biphenyl]-3-carboxamide]	significantly better EZH2 proteolytic ability	50.7%	A (>75%)	95.65%	confirming the EZH2 proteolytic effect	excellent effects	–	–	–
CCN(c1cc(-c2ccc(CN3CCN(CC(=O)NCCCCCCOCC(=O)N[C@H](C(=O)N4C[C@H](O)C[C@H]4C(=O)NCc4ccc(-c5scnc5C)cc4)C(C)(C)C)CC3)cc2)cc(C(=O)NCc2c(C)cc(C)[nH]c2=O)c1C)C1CCOCC1 [Example 46, (2S,4R)-1-((S)-2-(2-((6-(2-(4-((3′-(((4,6-dimethyl-2-oxo-1,2-dihydropyridine-3-yl)methyl)carbamoyl)-5′-(ethyl(tetrahydro-2H-pyran-4-yl)amino)-4′-methyl-[1,1′-biphenyl]-4-yl)methyl)piperazine-1-yl)acetamido)hexyl)oxy)acetamido)-3,3-dimethylbutanoyl)-4-hydroxy-N-(4-(4-methylthiazole-5-yl)benzyl)pyrrolidine-2-carboxamide]	significantly better EZH2 proteolytic ability	65.8%	–	–	–	–	83.76%	confirming the EZH2 proteolytic effect	A (key: A: >75%; B: 50-75%; C: 25-50%; D: <25%)
CCN(c1cc(-c2ccc(CN3CCN(CC(=O)NCCCCCCCCCOCC(=O)N[C@H](C(=O)N4C[C@H](O)C[C@H]4C(=O)NCc4ccc(-c5scnc5C)cc4)C(C)(C)C)CC3)cc2)cc(C(=O)NCc2c(C)cc(C)[nH]c2=O)c1C)C1CCOCC1 [Example 49, (2S,4R)-1-((S)-2-(2-((9-(2-(4-((3′-(((4,6-dimethyl-2-oxo-1,2-dihydropyridine-3-yl)methyl)carbamoyl)-5′-(ethyl(tetrahydro-2H-pyran-4-yl)amino)-4′-methyl-[1,1′-biphenyl]-4-yl)methyl)piperazine-1-yl)acetamido)nonyl)oxy)acetamido)-3,3-dimethylbutanoyl)-4-hydroxy-N-(4-(4-methylthiazole-5-yl)benzyl)pyrrolidine-2-carboxamide]	significantly better EZH2 proteolytic ability	77.8%	A (>75%)	96.49%	confirming the EZH2 proteolytic effect	excellent effects	–	–	–
CCN(c1cc(-c2ccc(CN3CCN(CC(=O)NCCCCCOCCCOCC(=O)N[C@H](C(=O)N4C[C@H](O)C[C@H]4C(=O)NCc4ccc(-c5scnc5C)cc4)C(C)(C)C)CC3)cc2)cc(C(=O)NCc2c(C)cc(C)[nH]c2=O)c1C)C1CCOCC1 [Example 37, (2S,4R)-1-((S)-2-(tert-butyl)-18-(4-((3′-(((4,6-dimethyl-2-oxo-1,2-dihydropyridine-3-yl)methyl)carbamoyl)-5′-(ethyl(tetrahydro-2H-pyran-4-yl)amino)-4′-methyl-[1,1′-biphenyl]-4-yl)methyl)piperazine-1-yl)-4,17-dioxo-6,10-dioxa-3,16-diazaoctadecanoyl)-4-hydroxy-N-(4-(4-methylthiazole-5-yl)benzyl)pyrrolidine-2-carboxamide]	significantly better EZH2 proteolytic ability	62.9%	A (>75%)	92.73%	–	excellent effects	–	–	–
CCN(c1cc(-c2ccc(OCC(=O)NCCCCCCNc3cccc4c3C(=O)N(C3CCC(=O)NC3=O)C4=O)cc2)cc(C(=O)NCc2c(C)cc(C)[nH]c2=O)c1C)C1CCOCC1 (centres unmarked) [compound 1, reference compound]	–	27.8%	–	–	–	–	–	–	–
